Measured values reported in patent US6392118B1, “Mx-1 conditionally immortalized cells” (Neurotech S.A., priority 1994, dated 2002).

Assays:
[1] = tested on: glial fibrillary acidic protein (GFAP); assay: GFAP reactivity of neural stem cells encapsulated in BAOs with or without EGF; format: cell-based; settings: 20 ng/ml EGF
Description: Neurospheres were prepared using the methods of Weiss et al., PCT/CA 92/00283. Passage 68 neurospheres were collected and divided. Half of the neurospheres were triturated into a single cell suspension and half remained as clusters. A single cell count was performed on a single cell suspension and it was assumed that the clustered cells were of the same concentration. Single cells and clusters were suspended separately in equal amounts of Vitrogen™ and either neurosphere medium with 20 ng/ml EGF as controls, or PC-1 medium.
Cells were loaded at a density of 25,000 cells/μl into single-skinned hollow fiber PAN/PVC BAOs, prepared substantially as described in Example 2, and then hub sealed. The BAOs were held in either neurosphere+EGF medium or in PC-1 medium (with no EGF).
The BAOs were sacrificed after 3 days and 7 days and were stained for glial fibrillary acidic protein (GFAP) by immunocytochemistry. GFAP is an intermediate filament protein specifically expressed in astrocytes. […]

Substance | toxicity of scaffold to PC12 cells (PC12 cells) | GFAP Reactivity ([1]; cell clusters, 3 days) | GFAP Reactivity ([1]; cell clusters, 7 days) | GFAP Reactivity ([1]; single cell, 3 days) | GFAP Reactivity ([1]; single cell, 7 days)
poly(hydroxyethyl methacrylate) [PHEMA] | nontoxic |  |  |  | 
EGF: epidermal growth factor, 20 ng/ml in neurosphere medium |  | Negative | Negative | Negative | Negative
